Test results published in PMC8130918 (PLoS Pathogens, 2021).
Where “and” joins values, the source holds several entries; their conditions need not be identical. Equal entries are not always repeated.

Key:
[1] = molecular target: RSV MTase-CTD (Human respiratory syncytial virus A, UniProt P28887); assay: MTase activity inhibition, filter-binding assay (3H-methyl transfer from SAM to GpppG-RSV9 RNA); assay type: biochemical; conditions: for IC50: 25 nM RSV MTase-CTD, 0.7 μM GpppG-RSV9 RNA, 2 μM SAM, pH 7.5, 30°C, Hill slope curve-fitting
RSV MTase-CTD, sequence (P28887 1755-2165): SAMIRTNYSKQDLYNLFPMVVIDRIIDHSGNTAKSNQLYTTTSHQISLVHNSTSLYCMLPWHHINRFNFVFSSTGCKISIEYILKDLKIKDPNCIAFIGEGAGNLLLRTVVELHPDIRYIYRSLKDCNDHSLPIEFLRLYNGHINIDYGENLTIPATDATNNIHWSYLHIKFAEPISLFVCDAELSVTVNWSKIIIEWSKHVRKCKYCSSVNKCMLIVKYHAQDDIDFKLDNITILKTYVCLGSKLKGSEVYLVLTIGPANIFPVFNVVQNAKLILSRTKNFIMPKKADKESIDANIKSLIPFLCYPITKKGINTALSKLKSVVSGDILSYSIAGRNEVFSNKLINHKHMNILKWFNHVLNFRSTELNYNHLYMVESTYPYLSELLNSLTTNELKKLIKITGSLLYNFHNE

[2] = system: RSV; assay: Antiviral activity in cellular assay, replication of RSV in HeLa cells; assay type: cell-based, Respiratory syncytial virus; conditions: before toxicity
[3] = molecular target: RSV L-P complex (Human respiratory syncytial virus A, UniProt P28887); assay: MTase activity inhibition, filter-binding assay with the RSV L-P complex; assay type: biochemical, human RSV (strain A2); conditions: 60 nM RSV L-P complex, 1.8 μM GpppG-RSV9 RNA, 0.17 μM SAM and 0.8 μM 3H-SAM, pH 7.5, 30°C
RSV L-P complex, sequence (P03421 whole entry): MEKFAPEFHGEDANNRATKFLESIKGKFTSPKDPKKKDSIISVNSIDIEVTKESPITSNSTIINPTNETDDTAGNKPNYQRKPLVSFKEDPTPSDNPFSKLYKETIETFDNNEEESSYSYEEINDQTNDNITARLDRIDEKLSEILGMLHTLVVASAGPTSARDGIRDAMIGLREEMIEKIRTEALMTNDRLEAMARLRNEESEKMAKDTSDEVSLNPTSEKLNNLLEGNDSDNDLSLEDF
RSV L-P complex, sequence (P28887 whole entry): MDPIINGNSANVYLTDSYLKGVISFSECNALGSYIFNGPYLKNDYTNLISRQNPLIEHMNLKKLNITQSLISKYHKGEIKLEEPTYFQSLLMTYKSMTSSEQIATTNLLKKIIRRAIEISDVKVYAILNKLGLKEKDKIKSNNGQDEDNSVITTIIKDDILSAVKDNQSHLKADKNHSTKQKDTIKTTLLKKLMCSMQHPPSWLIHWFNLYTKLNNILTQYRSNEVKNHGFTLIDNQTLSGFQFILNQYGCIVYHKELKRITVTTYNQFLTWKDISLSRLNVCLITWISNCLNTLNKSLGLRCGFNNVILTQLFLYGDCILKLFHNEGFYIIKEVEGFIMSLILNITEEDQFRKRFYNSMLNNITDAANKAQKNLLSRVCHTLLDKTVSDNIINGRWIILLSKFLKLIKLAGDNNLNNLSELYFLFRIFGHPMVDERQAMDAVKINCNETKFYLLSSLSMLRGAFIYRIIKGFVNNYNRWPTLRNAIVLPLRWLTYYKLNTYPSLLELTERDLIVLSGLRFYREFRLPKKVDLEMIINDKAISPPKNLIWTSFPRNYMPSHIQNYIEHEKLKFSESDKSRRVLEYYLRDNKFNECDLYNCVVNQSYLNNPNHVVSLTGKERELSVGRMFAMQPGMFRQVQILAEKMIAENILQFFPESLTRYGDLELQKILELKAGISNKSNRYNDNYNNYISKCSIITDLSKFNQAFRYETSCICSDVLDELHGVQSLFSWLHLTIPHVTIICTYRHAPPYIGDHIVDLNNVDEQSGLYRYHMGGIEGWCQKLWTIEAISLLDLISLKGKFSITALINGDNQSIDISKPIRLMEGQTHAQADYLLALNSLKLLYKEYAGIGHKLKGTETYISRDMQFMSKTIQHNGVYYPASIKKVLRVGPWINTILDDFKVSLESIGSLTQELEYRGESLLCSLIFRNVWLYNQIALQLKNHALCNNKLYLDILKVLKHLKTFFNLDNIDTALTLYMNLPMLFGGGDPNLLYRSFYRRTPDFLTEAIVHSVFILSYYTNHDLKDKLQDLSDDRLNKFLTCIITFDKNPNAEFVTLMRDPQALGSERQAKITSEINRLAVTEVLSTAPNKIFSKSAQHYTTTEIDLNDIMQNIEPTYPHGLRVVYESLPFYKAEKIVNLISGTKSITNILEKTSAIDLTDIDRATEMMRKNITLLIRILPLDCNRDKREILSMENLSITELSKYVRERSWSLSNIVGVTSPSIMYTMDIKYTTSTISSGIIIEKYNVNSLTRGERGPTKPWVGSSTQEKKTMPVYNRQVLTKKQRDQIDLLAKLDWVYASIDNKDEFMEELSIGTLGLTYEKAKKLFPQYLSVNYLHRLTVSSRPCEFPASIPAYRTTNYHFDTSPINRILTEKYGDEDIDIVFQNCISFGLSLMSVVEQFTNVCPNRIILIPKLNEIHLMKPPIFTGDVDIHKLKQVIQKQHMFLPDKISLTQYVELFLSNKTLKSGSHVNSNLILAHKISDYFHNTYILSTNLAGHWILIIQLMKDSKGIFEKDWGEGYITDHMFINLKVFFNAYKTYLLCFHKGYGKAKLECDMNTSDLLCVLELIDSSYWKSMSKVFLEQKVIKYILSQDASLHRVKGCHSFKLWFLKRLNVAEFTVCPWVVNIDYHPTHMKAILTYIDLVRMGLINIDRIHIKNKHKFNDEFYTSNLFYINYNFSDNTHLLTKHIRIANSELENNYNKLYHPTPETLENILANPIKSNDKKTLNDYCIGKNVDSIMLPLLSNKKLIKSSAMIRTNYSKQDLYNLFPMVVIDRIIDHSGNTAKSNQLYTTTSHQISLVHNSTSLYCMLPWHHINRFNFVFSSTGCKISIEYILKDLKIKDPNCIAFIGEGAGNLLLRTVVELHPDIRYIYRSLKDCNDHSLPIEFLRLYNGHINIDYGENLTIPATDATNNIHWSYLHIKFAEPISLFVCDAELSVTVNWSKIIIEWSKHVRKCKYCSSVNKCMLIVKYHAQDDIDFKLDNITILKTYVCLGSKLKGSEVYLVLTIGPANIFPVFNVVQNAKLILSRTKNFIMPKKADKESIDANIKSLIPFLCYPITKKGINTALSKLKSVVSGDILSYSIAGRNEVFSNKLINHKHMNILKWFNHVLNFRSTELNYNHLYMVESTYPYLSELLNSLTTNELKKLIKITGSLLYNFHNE

[4] = system: VSV; conditions: BHK cells, plaque assay; read-out: half maximal effective concentration (EC50), VSV replication; cited from earlier work

## C[n+]1cn(C2OC(COP(=O)([O-])OP(=O)(O)OP(=O)(O)OCC3OC(n4cnc5c(N)ncnc54)C(O)C3O)C(O)C2O)c2nc(N)[nH]c(=O)c21 (stereo not shown) [^mGpppA]
[1]
  inhibitory activity on RSV MTase-CTD compared with GpppG: lower inhibitory activity

## Nc1nc2c(ncn2[C@@H]2O[C@H](COP(=O)(O)OP(=O)(O)OP(=O)(O)OC[C@H]3O[C@@H](n4cnc5c(N)ncnc54)[C@H](O)[C@@H]3O)[C@@H](O)[C@H]2O)c(=O)[nH]1 [GpppA]
[1]
  inhibitory activity on RSV MTase-CTD compared with GpppG: lower inhibitory activity

## Cn1c[n+]([C@@H]2O[C@H](COP(=O)(O)OP(=O)([O-])O)[C@@H](O)[C@H]2O)c2nc(N)[nH]c(=O)c21 [^mGDP]
[1]
  inhibitory activity on RSV MTase-CTD compared with GpppG: lower inhibitory activity

## Nc1ncnc2c1ncn2[C@@H]1O[C@H](C[C@@H](N)CC[C@H](N)C(=O)O)[C@@H](O)[C@H]1O [sinefungin]
[2]
  inhibition of replication of RSV: did not show inhibition activity
[3]
  IC50: 9.8 µM and ~9.8 µM
[1]
  IC50: 6.4 µM and ~6.4 µM
[4]
  EC50: 220 µM

## Nc1ncnc2c1ncn2[C@@H]1O[C@H](CSCC[C@H](N)C(=O)O)[C@@H](O)[C@H]1O [SAH, S-adenosyl homocysteine]
[3]
  IC50: 37.8 µM and ~37.8 µM
[1]; 3 h
  IC50: 24.7 µM and ~24.7 µM

## Nc1nc2c(ncn2[C@@H]2O[C@H](COP(=O)(O)OP(=O)(O)OP(=O)(O)OC[C@H]3O[C@@H](n4cnc5c(=O)[nH]c(N)nc54)[C@H](O)[C@@H]3O)[C@@H](O)[C@H]2O)c(=O)[nH]1 [GpppG]
[1]; […], methylation of GpppG-RSV9 RNA by FBA, 50 µM
  inhibition of the activity of the RSV MTase-CTD: 50%
